Experimental data taken from patent publication US11084826B2, “RSV antiviral pyrazolo- and triazolo-pyrimidine compounds” (Janssen Sciences Ireland Unlimited Company, priority 2015, dated 2021).
Read-outs that look alike come from different tables or passages of the source.

Key:
rgRSV224 virus = assay: Antiviral activity: inhibition of rgRSV224 (GFP-expressing RSV) replication in HeLa cells, GFP expression read-out; format: cell-based, respiratory syncytial virus (RSV); conditions: for RSV HELA pEC50: rgRSV224 virus (MOI=1) in HeLa cells, GFP read-out
Procedure, shortened: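 EC50 is the 50% inhibitory concentration for GFP expression, read by laser microscopy three days after rgRSV224 infection (MOI=1) of HeLa cells (3,000/well). Compounds were tested as 9 serial 4-fold dilutions at 0.05% DMSO, and cells were incubated at 37° C under 5% CO2.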

[1] = Cytotoxicity in HeLa cells, ATP content measured with the ATPlite kit; format: cell-based; conditions: human, TOX HELA pCC50
HeLa cells = assay: as above; format: cell-based

C[C@@H]1CCCCCN1C(=O)c1cc(C2CCC2)n2nc(-c3ccc(/C=C/C(=O)O)cc3F)cc2n1 [Compound M19]
EC50 (rgRSV224 virus; human respiratory syncytial virus, HeLa, read-out: RSV HELA pEC50, rgRSV224 virus (MOI=1) in HeLa cells, GFP read-out (converted)): 0.0302 µM
RSV HELA pEC50 (rgRSV224 virus): 7.72
CC50 at 3 days [1]: 38.9 µM
TOX HELA pCC50 (HeLa cells; human, 3 days): 4.49

CCc1cc(C(=O)N2CCCCC[C@H]2C)nc2cc(-c3ccc(-n4cc(C(=O)O)cn4)cc3F)nn12 [Compound W2]
CC50 at 3 days [1]: > 25.1 µM
TOX HELA pCC50 (HeLa cells; human, 3 days): 4.31

CC(C)Cc1cc(C(=O)N2CCCCC[C@H]2C)nc2cc(-c3ccc(N4CC[C@H](C(=O)O)C4)cc3F)nn12 [Compound W14]
RSV HELA pEC50 (rgRSV224 virus): 7.53
TOX HELA pCC50 (HeLa cells): 4.29
